In patent publication EP4772634A1, “DOUBLE-STRANDED RNA TARGETING COAGULATION FACTOR XI” (Chia Tai Tianqing Pharmaceutical Group Co., Ltd., priority 2023, dated 2025):

Legend:
[1] = test system: human coagulation factor XI protein; assay: In vivo activity in human coagulation factor XI model mice (Experimental Example 4), FXI protein by ELISA; settings: female humanized homozygous mice, single subcutaneous 3 mg/kg
Procedure: The humanized mice used in this experimental example were purchased from Cyagen Biosciences Co., Ltd. The female humanized homozygous mice were randomly divided into groups, with 4 mice per group. The compound and PBS control (pH = 7.2) were administered to each group of mice, respectively. The day of the first administration was designated as day 0 of the experiment. The corresponding compound solutions were administered via a single subcutaneous injection based on animal body weight, at an administration dose of 3 mg/kg. PBS control mice were each administered PBS, with an administration volume of 10 mL/kg body weight. Orbital blood was collected before administration and on day 3, day 7, day 14, day 21, day 28, day 42, day 56, and day 70 after administration. Serum was separated, and the content of the coagulation factor XI protein in the serum at each time point was measured using a Human Coagulation Factor XI ELISA kit (Thermo, Batch No. 2350072722, Cat. No. EH118RB).
(§1) The coagulation factor XI protein inhibition rate was calculated according to the following equation: [formula]
Table 13 lists the measurement of coagulation factor XI protein content in animal plasma before and on day 3, day 7, day 14, day 21, day 28, day 42, day 56, and day 70 after a single subcutaneous administration of siRNA ligand conjugates at a dose of 3 mg/kg to humanized homozygous mice. […] Table 13. In vivo experimental design

[2] = test system: human coagulation factor XI protein; assay: In vivo activity in AAV-FXI model mice, serum FXI protein by ELISA; settings: AAV-FXI mice (C57BL/6 male), single subcutaneous 3 mg/kg
Procedure: 4-6 week old C57BL/6 male mice were injected via the tail vein with 1 × 10^11 vg of AAV8-FXI (WZ Biosciences). On day 28 after modeling, mice with an hFXI protein content of greater than 100 ng/mL were selected. The mice were randomly divided into groups based on body weight and were injected with 3 mg/kg of the dsRNA ligand conjugate of the present application (amount calculated based on siRNA only) on day 0. Orbital blood was collected on day 7, day 14, day 35, and day 56. Serum was separated, and the content of the coagulation factor XI protein in the serum at each time point was measured using a Human Coagulation Factor XI ELISA kit (Thermo, Cat. No. EH118RB).
as §1
The content of the coagulation factor XI protein in animal serum was measured before and on day 7, day 14, day 35, and day 56 after a single subcutaneous administration of the dsRNA ligand conjugate of the present application at a dose of 3 mg/kg to AAV-FXI mice (see Table 15). […] Table 15. In vivo experimental design

coagulation factor XI = assay: In vivo activity in cynomolgus monkeys, plasma FXI activity; settings: cynomolgus monkey plasma, subcutaneous once, 4.2 mg/kg (first row, dose by order of Table 17)
Procedure: (§2) On day 7 before administration, female cynomolgus monkeys weighing 2-4 kg were fasted overnight, and about 1 mL of blood was collected from the femoral vein. Plasma was collected by centrifugation. FXI protein (Human Coagulation Factor XI ELISAkit, Thermo, Cat. No. EH118RB), FXI activity (coagulation factor XI assay kit, Stago, Cat. No. 00723), and APTT (activated partial thromboplastin time assay kit, Stago, Cat. No. 00595) were measured. The monkeys were evenly divided into groups based on these indicators. On day 0, the dsRNA ligand conjugates of the present application (TD02M02L01, etc.) were injected. On day 0, day 3, day 7, day 14, day 21, day 28, day 37, day 54, and day 68, plasma was collected to measure plasma FXI protein, FXI activity, and activated partial thromboplastin time (APTT).
The coagulation factor XI activity inhibition rate was calculated according to the following equation: [formula]
(§3) The content of the coagulation factor XI protein, the FXI activity, and the activated partial thromboplastin time in animal plasma were measured before and on day 0, day 3, day 7, day 14, day 21, day 28, day 37, day 54, and day 68 after the subcutaneous administration of the dsRNA ligand conjugates of the present application at doses of 4.2 mg/kg and 14 mg/kg to cynomolgus monkeys (Table 17). […] Table 17. In vivo experimental design

[3] = test system: activated partial thromboplastin time (APTT); assay: In vivo activity in cynomolgus monkeys, activated partial thromboplastin time in plasma; settings: cynomolgus monkey plasma, subcutaneous once, 14 mg/kg (second row, dose by order of Table 17)
Procedure: as §2
The activated partial thromboplastin time prolongation rate was calculated according to the following equation: [formula]
as §3

Substance: TD02M02L01: dsRNA ligand conjugate: TD02M02 with L01 (GalNAc) ligand at 3' end of sense strand SEQ ID NO 35; antisense SEQ ID NO 36 (sense GGATGATTTTCTTATATCA; antisense TGATATAAGAAAATCATCCTG; GalNAc L01 ligand at sense 3' end, 2'-OMe/2'-F, pattern not given here)
- Relative inhibition rate (%) of FXI protein ([1]; D3): 74.4%
- Relative inhibition rate (%) of FXI protein ([1]; D7): 93.7%
- Relative inhibition rate (%) of FXI protein ([1]; D14): 86.4%
- Relative inhibition rate (%) of FXI protein ([1]; D21): 88.0%
- Relative inhibition rate (%) of FXI protein ([1]; D28): 84.9%
- Relative inhibition rate (%) of FXI protein ([1]; D42): 63.3%
- Relative inhibition rate (%) of FXI protein ([1]; D56): 50.4%
- Relative inhibition rate (%) of FXI protein ([1]; D70): 21.4%
- Relative inhibition rate (%) of FXI protein ([2]; D7): 96.3%
- Relative inhibition rate (%) of FXI protein ([2]; D14): 97.3%
- Relative inhibition rate (%) of FXI protein ([2]; D35): 86.0%
- Relative inhibition rate (%) of FXI protein ([2]; D56): 57.4%
- Relative inhibition rate (%) of FXI activity (coagulation factor XI; D3): 20.5%
- Relative inhibition rate (%) of FXI activity (coagulation factor XI; D7): 66.0%
- Relative inhibition rate (%) of FXI activity (coagulation factor XI; D14): 84.7%
- Relative inhibition rate (%) of FXI activity (coagulation factor XI; D21): 88.9%
- Relative inhibition rate (%) of FXI activity (coagulation factor XI; D28): 89.2%
- Relative inhibition rate (%) of FXI activity (coagulation factor XI; D37): 92.6%
- Relative inhibition rate (%) of FXI activity (coagulation factor XI; D54): 91.4%
- Relative prolongation rate (%) of APTT ([3]; D3): 6.0%
- Relative prolongation rate (%) of APTT ([3]; D7): 25.2%
- Relative prolongation rate (%) of APTT ([3]; D14): 60.9%
- Relative prolongation rate (%) of APTT ([3]; D21): 116.0%
- Relative prolongation rate (%) of APTT ([3]; D28): 70.6%
- Relative prolongation rate (%) of APTT ([3]; D37): 100.3%
- Relative prolongation rate (%) of APTT ([3]; D54): 124.4%
- Relative prolongation rate (%) of APTT ([3]; D68): 132.4%
